From paper PMC11393688, “Design and synthesis of new 1,2,4-oxadiazole/quinazoline-4-one hybrids with antiproliferative activity as multitargeted inhibitors” (Frontiers in Chemistry, 2024)

What was measured:
[1] = test system: various cancer cell lines; set-up: method as in Hisham et al., 2022; Hisham et al., 2023; conditions: ref Hisham et al., 2022, 2023; cited from earlier work
[2] = test system: pancreatic cancer (Panc-1) cell line; test: Antiproliferative MTT assay, Panc-1; format: cell-based; conditions: Homo sapiens, Panc-1 pancreatic cancer cells, read-out: Antiproliferative activity IC50 ± SEM Panc-1
Description: (§1) 4.2.1.2. Assay for antiproliferative effect
(§2) To explore the antiproliferative potential of compounds MTT assay was performed according to previously reported procedure using different cell lines to explore the antiproliferative potential of […]
(§3) calculate the total nuclear DNA, a fluorescent dye (propidium iodide, PI) is used which can attach to the DNA, thus offering a quick and precise technique. PI cannot pass through the cell membrane and its signal intensity can be considered as directly proportional to quantity of cellular DNA.
(§4) Cells whose cell membranes are damaged or have changed permeability are counted as dead ones.
(§5) The assay was performed by seeding the cells of different cell lines at a density of 3000-7500 cells/well (in 200µl medium) in culture plates followed by incubation for 24h at 37 °C in humidified 5% CO2/95% air atmospheric conditions. The medium was removed; the compounds were added to the plates at 10 µM concentrations (in 0.1% DMSO) in triplicates, followed by incubation for 48 h. DMSO (0.1%) was used as control. After incubation, medium was removed […]
(§6) 80 °C, the plates were allowed to freeze for 24 h, followed by thawing at 25 °C. […]
(§7) (Polar-Star BMG Tech) was used to record the readings at excitation and emission wavelengths of 530 and 620 nm for each well. The percentage cytotoxicity of compounds was calculated using […]
(§8) Where ATC= Absorbance of treated cells and AC= Absorbance of control. Erlotinib was used as positive control in the assay.

BRAF^V600E [3] = target: T1, BRAF^V600E (Homo sapiens, UniProt P15056, V600E); test: BRAF^V600E kinase inhibitory assay; format: biochemical, Mouse; conditions: read-out: BRAF^V600E inhibition IC50 ± SEM
T1 construct: Mouse full-length GST-tagged BRAFV600E; GST; purchased Invitrogen PV3849
T1 sequence (P15056 2-766 V600E limits assumed): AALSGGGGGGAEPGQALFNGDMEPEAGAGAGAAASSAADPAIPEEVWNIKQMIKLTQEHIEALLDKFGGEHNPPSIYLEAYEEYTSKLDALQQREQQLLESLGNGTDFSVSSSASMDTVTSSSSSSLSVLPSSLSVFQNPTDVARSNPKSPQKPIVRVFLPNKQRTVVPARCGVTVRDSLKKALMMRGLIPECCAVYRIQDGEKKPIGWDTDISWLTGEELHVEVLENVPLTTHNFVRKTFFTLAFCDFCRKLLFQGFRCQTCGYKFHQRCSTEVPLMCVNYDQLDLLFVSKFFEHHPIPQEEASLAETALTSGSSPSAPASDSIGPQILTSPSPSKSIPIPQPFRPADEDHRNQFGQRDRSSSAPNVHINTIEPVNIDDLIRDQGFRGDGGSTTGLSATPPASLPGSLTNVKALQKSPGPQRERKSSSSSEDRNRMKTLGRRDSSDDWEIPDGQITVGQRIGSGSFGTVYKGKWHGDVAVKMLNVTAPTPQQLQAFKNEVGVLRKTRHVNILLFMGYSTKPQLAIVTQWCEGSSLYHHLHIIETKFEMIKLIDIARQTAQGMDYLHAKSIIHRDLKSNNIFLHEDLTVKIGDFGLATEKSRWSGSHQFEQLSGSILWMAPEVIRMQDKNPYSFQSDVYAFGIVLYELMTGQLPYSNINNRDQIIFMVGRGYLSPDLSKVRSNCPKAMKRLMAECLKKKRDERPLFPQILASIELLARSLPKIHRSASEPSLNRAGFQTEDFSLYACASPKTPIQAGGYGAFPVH
Description: Refer to Supplementary Appendix A for more details. […]
4.2.1.4. BRAF kinase assay […]
against BRAF. Mouse full-length GST-tagged BRAFV600E (7.5 ng, Invitrogen, PV3849) was pre-incubated with drug (1 µL) and assay dilution buffer (4 µL) for 60 min at 25 °C. In assay dilution buffer, a solution (5 µL) containing MgCl2 (30 mM), ATP (200 µM), recombinant human full length (200 ng) […] N-terminal His-tagged MEK1 (Invitrogen) was added to start the assay, subsequent to incubation for 25 min at 25 °C. The assay was stopped using 5X protein denaturing buffer (LDS) solution (5 µL). To further denature the protein, heat (70° C) was applied for 5 min.
10 µL of each reaction was loaded into the precast plates and electrophoresis was allowed to proceed. After completion of electrophoresis, the front part of the precast gel plate (holding hot ATP) was cut and afterwards cast-off. The dried gel was developed using a phosphor screen. A […]
served as positive control. […]
(FITC) and propidium iodide (PI) staining kit (BD Pharmingen, San Diego, USA). […]
4.3. Statistical analysis
Computerized Prism 5 program was used to statistically analyzed data using one-way ANOVA test followed by Tukey’s as post ANOVA for multiple comparison at P ≤.05. Data were presented

EGFR [4] = target: T2, EGFR (Homo sapiens, UniProt P00533); test: EGFR-TK inhibitory assay; format: biochemical; conditions: read-out: EGFR inhibition IC50 ± SEM
T2 construct: amino acids 645–1186; His6 (N); made in house; host or cells: Sf-9 insect cells (baculovirus; pBlueBacHis2B / pFASTBacHTc)
T2 sequence (P00533 669-1210): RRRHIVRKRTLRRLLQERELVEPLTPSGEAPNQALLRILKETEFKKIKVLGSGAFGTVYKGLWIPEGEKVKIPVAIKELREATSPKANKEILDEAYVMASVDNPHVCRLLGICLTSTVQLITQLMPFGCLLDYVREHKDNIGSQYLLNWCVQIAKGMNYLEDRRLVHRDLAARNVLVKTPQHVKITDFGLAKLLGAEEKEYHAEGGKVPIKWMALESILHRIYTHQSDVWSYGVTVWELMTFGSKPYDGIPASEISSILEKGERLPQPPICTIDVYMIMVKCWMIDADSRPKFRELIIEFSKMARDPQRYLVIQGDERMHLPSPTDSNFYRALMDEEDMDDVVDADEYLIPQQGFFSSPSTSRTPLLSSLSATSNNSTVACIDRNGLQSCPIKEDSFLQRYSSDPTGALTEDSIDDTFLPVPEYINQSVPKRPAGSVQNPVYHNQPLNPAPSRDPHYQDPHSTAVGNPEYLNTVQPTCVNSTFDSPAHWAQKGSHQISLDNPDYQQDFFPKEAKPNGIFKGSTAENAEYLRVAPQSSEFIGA
Description: 4.2.1.3. EGFR inhibitory assay
Sf-9 cells were infected for 72h for protein expression. […]
centrifugation for 20 min.
Histidine-linked proteins were first eluted with 250 and then […]
using wash buffer. Europium-tagged antiphosphotyrosine antibody (75 µL, 400 ng) was added to each well followed by incubation of 1h and then washing of the plates using buffer. The enhancement solution was added to each well and the signal was recorded at excitation and […]
The autophosphorylation percentage inhibition by compounds was calculated using the following equation: […]
(1 picture or pasted object on this page, not shown here)

EGFR^T790M = EGFR^T790M (Homo sapiens, UniProt P00533, T790M); test: EGFR^T790M inhibitory assay (HTRF KinEASE-TK)
EGFR^T790M, sequence (P00533 25-1210 T790M): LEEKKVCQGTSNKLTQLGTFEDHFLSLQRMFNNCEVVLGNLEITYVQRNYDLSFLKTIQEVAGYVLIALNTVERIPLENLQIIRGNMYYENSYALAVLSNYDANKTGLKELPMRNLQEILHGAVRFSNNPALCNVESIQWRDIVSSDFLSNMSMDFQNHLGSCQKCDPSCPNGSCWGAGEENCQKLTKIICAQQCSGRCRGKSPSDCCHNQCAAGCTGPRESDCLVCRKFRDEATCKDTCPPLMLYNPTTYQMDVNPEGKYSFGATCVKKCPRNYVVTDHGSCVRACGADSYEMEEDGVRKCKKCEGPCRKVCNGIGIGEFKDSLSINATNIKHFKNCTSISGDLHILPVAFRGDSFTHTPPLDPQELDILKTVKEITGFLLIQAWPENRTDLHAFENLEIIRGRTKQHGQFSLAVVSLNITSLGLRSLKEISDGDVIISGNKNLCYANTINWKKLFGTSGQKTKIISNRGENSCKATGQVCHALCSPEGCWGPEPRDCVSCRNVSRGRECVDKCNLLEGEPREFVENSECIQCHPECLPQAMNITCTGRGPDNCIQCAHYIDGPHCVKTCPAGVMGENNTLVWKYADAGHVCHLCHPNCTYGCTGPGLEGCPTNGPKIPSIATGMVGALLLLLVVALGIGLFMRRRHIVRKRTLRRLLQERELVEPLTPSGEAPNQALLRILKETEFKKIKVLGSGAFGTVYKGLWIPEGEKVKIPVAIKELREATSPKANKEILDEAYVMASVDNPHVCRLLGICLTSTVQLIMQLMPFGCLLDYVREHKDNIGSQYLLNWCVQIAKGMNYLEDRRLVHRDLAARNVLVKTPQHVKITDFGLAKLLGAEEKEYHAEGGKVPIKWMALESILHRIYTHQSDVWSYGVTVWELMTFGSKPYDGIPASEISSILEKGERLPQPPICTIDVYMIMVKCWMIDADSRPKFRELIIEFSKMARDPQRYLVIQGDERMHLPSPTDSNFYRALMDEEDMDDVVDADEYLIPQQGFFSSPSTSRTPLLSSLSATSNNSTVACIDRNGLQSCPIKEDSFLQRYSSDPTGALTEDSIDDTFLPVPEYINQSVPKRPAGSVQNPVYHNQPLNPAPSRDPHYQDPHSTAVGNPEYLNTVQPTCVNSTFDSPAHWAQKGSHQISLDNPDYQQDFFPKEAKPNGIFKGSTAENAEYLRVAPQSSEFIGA

[5] = test system: four human cancer cell lines (HT-29, Panc-1, A-549, MCF-7); test: Average antiproliferative activity (GI50) over four cancer cell lines; format: cell-based; conditions: average IC50 against the four cancer cell lines
Description: as §1, §2, §3, §4, §5, §6, §7, §8

[6] = test system: breast cancer (MCF-7) cell line; test: Antiproliferative MTT assay, MCF-7; format: cell-based; conditions: Homo sapiens, MCF7, MCF-7 breast cancer cells, read-out: Antiproliferative activity IC50 ± SEM MCF-7
Description: as §1, §2, §3, §4, §5, §6, §7, §8

[7] = Cell viability, MTT test on normal cell line; format: cell-based; conditions: human, MCF-10A mammary gland epithelial cells (normal cell line), MCF-10A normal cells, 4 days incubation
Description: The human mammary gland epithelial (MCF-10A) normal cell line was used to test the viability of novel compounds 9a-o ([Mahmoud et al., 2022]; [Mekheimer et al., 2022]). After 4 days of incubation on MCF-10A cells, the cell viability of compounds 9a-o was determined using the MTT test.
The human mammary gland epithelial (MCF-10A) normal cell line was used to test the viability of compounds 9a-o ([Mahmoud et al., 2022]; [Mekheimer et al., 2022]). Refer to Supplementary Appendix A (Supplementary Material) for more details.
4.2. Biological evaluation
4.2.1. Cytotoxic activity using MTT Assay and evaluation of IC50
MTT assay was carried out to study the effect of compounds on mammary epithelial cells (MCF-10A). The medium in which cells were propagated contained Dulbecco's modified Eagle's medium (DMEM)/ Ham's F-12 medium (1:1) supplemented with epidermal growth factor (20 ng/mL), hydrocortisone (500 ng/mL), insulin (10 μg/mL), 2 mM glutamine and 10% foetal calf serum.
After every 2-3 days, the cells were passaged using trypsin ethylenediamine tetra acetic acid (EDTA). The cells were seeded at a density of 10^4 cells mL-1 in flat-bottomed culture plates containing 96 wells each. After 24 h, medium was removed from the plates and the compounds in (in 0.1% DMSO) were added (in 200 μL medium to yield a final concentration of 0.1% v/v) to the wells of plates. A single compound was designated with four wells followed by incubation of plates for 96h at 37°C. After incubation, medium was removed completely from the plates followed by addition of MTT (0.4 mg/mL in medium) to each well and subsequent incubation of plates for 3h. MTT (along with the medium) was removed and DMSO (150μL) was added to each well of the culture plates, followed by vertexing and subsequent measurement of absorbance (at 540 nm) using microplate reader. The data are shown as percentage inhibition of proliferation in comparison with controls containing 0.1% DMSO.

[8] = test system: lung cancer (A-549) cell line; test: Antiproliferative MTT assay, A-549; format: cell-based; conditions: Homo sapiens, A549, A-549 lung cancer cells, read-out: Antiproliferative activity IC50 ± SEM A-549
Description: as §1, §2, §3, §4, §5, §6, §7, §8

[9] = test system: colon cancer (HT-29) cell line; test: Antiproliferative MTT assay, HT-29; format: cell-based; conditions: Homo sapiens, HT-29 colon cancer cells, read-out: Antiproliferative activity IC50 ± SEM HT-29
BRAF^V600E [10] = test system: BRAF^V600E; set-up: method as in Hisham et al., 2022; Hisham et al., 2023; conditions: ref Hisham et al., 2022, 2023, read-out: IC50 against BRAF^V600E; cited from earlier work
EGFR [11] = target: T2, EGFR; set-up: method as in Okaniwa et al., 2012; Zhang et al., 2013; conditions: ref Okaniwa et al., 2012; Zhang et al., 2013; cited from earlier work
wild-type BRAF = test system: wild-type BRAF; set-up: method as in Okaniwa et al., 2012; Zhang et al., 2013; conditions: ref Okaniwa et al., 2012; Zhang et al., 2013; cited from earlier work

IC50 [2]	IC50 (BRAF^V600E [3])	IC50 (EGFR [4])	IC50 (EGFR^T790M)	GI50 [5]	melting point	IC50 [6]	IC50 [8]	IC50 [9]	SMILES	GI50 [1]	viability at 96 h, 50 µM [7]	IC50 (BRAF^V600E [10])	IC50 against EGFR (EGFR [11])	IC50 against wild-type BRAF (wild-type BRAF)
–	–	–	–	–	–	–	–	–	COc1cccc2c1C(=O)c1c(O)c3c(c(O)c1C2=O)C[C@@](O)(C(=O)CO)C[C@@H]3O[C@H]1C[C@H](N)[C@H](O)[C@H](C)O1 [Doxorubicin]	1140 nM	–	–	–	–
29 ± 2 nM	57 ± 5 nM	72 ± 5 nM	15 ± 2 nM	30 nM	178 to 180 °C	31 ± 3 nM	28 ± 2 nM	30 ± 3 nM	Cc1cccc(-n2c(SCc3nc(-c4ccc(Cl)cc4)no3)nc3ccccc3c2=O)c1 [Compound 9h, 2-((3-(4-Chlorophenyl)-1,2,4-oxadiazol-5-yl)methylthio)-3-m-tolylquinazolin-4(3H)-one]	–	89%	–	–	–
–	–	–	–	–	–	–	–	–	C=CCn1c(SCC(=O)Nc2cccc(C(=O)/C=C/c3ccc(OC)cc3)c2)nc2ccccc2c1=O [IX]	1160 nM	–	650 nM	–	–
–	–	–	–	–	–	–	–	–	COc1cc2ncnc(Nc3cccc(NC(=O)Nc4ccc(Cl)c(C(F)(F)F)c4)c3)c2cc1OCCCN1CCOCC1 [I]	–	–	–	nanomolar range	nanomolar range
26 ± 2 nM	51 ± 5 nM	64 ± 5 nM	11 ± 2 nM	26 nM	186 to 188 °C	28 ± 3 nM	24 ± 2 nM	25 ± 2 nM	COc1ccc(-c2noc(CSc3nc4ccccc4c(=O)n3-c3ccccc3)n2)cc1 [Compound 9c, 2-((3-(4-Methoxyphenyl)-1,2,4-oxadiazol-5-yl)methylthio)-3-phenylquinazolin-4(3H)-one]	–	91%	–	–	–
